In patent US5550138A, “Condensed thiadiazole derivative, method of its production, and use thereof” (Takeda Chemical Industries, Ltd., priority 1992, dated 1996):

What was measured:
swine coronary artery = test: Inhibitory action on endothelin-1-induced constriction in swine coronary artery; assay type: cell-based; conditions: Sus scrofa, relaxation of maximum constriction induced by endothelin-1 (3×10^-9 M); for inhibition at 100 µM: compound 1 × 10^-4 M; for inhibition at 10 µM: compound 1 × 10^-5 M; for inhibition at 30 µM: compound 3 × 10^-5 M
Protocol: Inhibitory action on endothelin-1-induced constriction in swine coronary artery
After fat tissue removal, the swine left coronary arterial anterior descending branch (LAD) was isolated and vascular rings were prepared. These arterial rings kept at 37° C., were suspended in a 20 ml organ chamber filled with Krebs solution being aerated with 95% O2 /5% CO2 gas. Two grams of the tension was applied. After equilibration for 1 hr, 60 mMKCl was applied to condition the coronary rings. The test compound was tested for inhibition of the constriction induced by endothelin-1 (3×10^-9 M) by adding the test compound when the maximum of endothelin-1 induced constriction was reached. Activity is expressed as percent relaxation of the maximum constriction induced by endothelin-1. The developed tension of rings was reached isometrically.

endothelin receptor = test: Inhibition of endothelin-1 binding to endothelin receptor (125I-endothelin binding test, rabbit ventricular microsomal fraction); conditions: 125I-endothelin-1 6×10^-11 M, 37° C., 90 minutes
Protocol: Inhibition of endothelin-1 binding to endothelin receptor
(a) Preparation of rabbit ventricular microsomal fraction
Rabbit ventricular microsomal fraction was prepared by the method described in Methods in Enzymology, 109, 513 with a slight modification. The cardiac ventricular muscle excised from a 2 to 2.5 kg rabbit was minced in solution A (20 mM NaHCO3, 0.1 mM phenylmethylsulfonyl fluoride (PMSF)) and then homogenized using a Polytron PT-20, and centrifuged at 1500×g for 15 minutes. The supernatant was centrifuged at 45000×g for 15 minutes. The resulting sediment was suspended in solution B (50 mM Tris-HCl pH 7.4, 0.1 mM PMSF) and then re-centrifuged at 45000×g for 15 minutes. The sediment was again suspended in solution B and then centrifuged at 45000×g for 15 minutes. The sediment was re-suspended in solution B, and the suspension was frozen with liquid nitrogen and stored at -80° C. This series of operations was performed at 4° C. Protein contents was determined by Lowry's method.
(b) ^125 I-endothelin binding test
To 250 μl of a reaction solution (50 mM Tris-HCl, pH 7.4, 0.2% BSA (bovine serum albumin)), supplemented with 6×10^-11 M ^125 I-endothelin-1 (Amersham Japan) 50 μl of the ventricular microsomal fraction (20 μg) and a sample were added, followed by incubation at 37° C. for 90 minutes. The reaction mixture was then filtered through a GF/B glass filter (Millipore Japan), and the filter was washed with a 40-fold (12 ml) of the reaction solution. The radioactivity of the ^125 I-endothelin on the glass filter was determined using a gamma-ray counter. Nonspecific binding was defined as the amount of ^125 I-endothelin in the presence of 4×10^-7 M unlabelled endothelin-1 and was less than 8% of total binding. The specific binding was calculated as total binding minus nonspecific binding. Non-specific binding accounted for not higher than 8% of the total binding. The inhibitory rate of the compound is expressed as the concentration (IC50 M) required to cause a 50% reduction in the specific binding.

bone resorption = test: Inhibition of bone resorption (45Ca release from fetal rat forearm bones); assay type: cell-based, rat (Sprague-Dawley); conditions: 48 h, 10 μg/ml compound, two days of culture, read-out: Inhibition of Bone Resorption [45Ca released (percent ratio to control)]
Protocol: Inhibition of bone resorption
The inhibitory effect of compound on bone resorption was measured by the method of Rais 3 [Journal of Clinical Investigation, 44, 103-116 (1965)]. Specifically, one Sprague-Dawley rat, at 19 days of gestation, was given 50 μCi of ^45 Ca (calcium isotope, in CaCl2 solution) by subcutaneous injection. On the following day, fetal rats were aseptically taken out, both forearm bones (radius and ulna) were cut out from the body of each fetus, and connective tissue and cartilages were removed to maximum possible extent, to yield prepare bone culture samples. Each bone fragment was incubated at 37° C. for 24 hours in 0.6 ml of BGJb medium (Fitton-Jackson modification, produced by GIBCO Laboratories, United States) containing 2 mg/ml bovine serum albumin, after which it was cultured in the same medium as above but containing a 10 μg/ml compound for two more days. ^45 Ca radioactivity in the medium and ^45 Ca radioactivity in the bone were then measured, and the percent ratio of ^45 Ca released from the bone to the medium was calculated using the following equation: [formula]
For control, bone fractions from fetuses of the same litter were cultured for two days in the absence of the test compound. The mean ± standard deviation for the values from five bone fragments in each group were calculated, and their percent ratios to the control were calculated.

Cathepsin B = test: Determination of cathepsin B inhibitory activity; assay type: biochemical; conditions: substrate Z-Phe-Arg-NH-Mec; pH 5.5; 37° C., 20 minutes
Protocol: Determination of cathepsin B inhibitory activity
Cathepsin B (produced by Sigma) was diluted with 100 mM sodium acetate buffer (pH 5.5) to a concentration of 30 μg/ml. To 1 μl of this enzyme dilution, 46 μl of diluent, 2 μl of 0.1M DTT and 25 μl of activator/buffer (340 mM sodium acetate, 60 mM acetic acid, 4 mM EDTA disodium salt, pH 5.5) were added. To this mixture, a 1 μl sample, diluted to 10^-3 M with dimethylsulfoxide (DMSO), and 25 μl of 20 μM Z-Phe-Arg-NH-Mec (enzyme substrate solution) were added. After the mixture was incubated at 37° C. for 20 minutes, 100 μl of a stop solution (100 mM sodium monochloroacetate, 30 mM sodium acetate, pH 4.3) was added. The reaction was carried out on a 96-well fluoropiate (produced by Labo-Systems).
After the reaction was stopped, the absorbance of free aminomethylcoumarin was determined by excitation at 365 nm and emission at 450 nm, using Fluorescence Concentration Analyzer (produced by Baxter). One μl of sample-free DMSO was added for control, and the absorbance from reaction of this control was defined as 100% activity. For samples of under 10% residual activity, further dilutions were assayed for residual activity as described above to obtain the IC50 value.

mice = test: Toxicity in mice (deaths); assay type: in vivo; conditions: 300 mg/kg dose
Protocol: Although the daily dose varies depending on the condition and weight of the patient, kind of the compound, route of administration and other factors, it is administered parenterally, specifically subcutaneously, intravenously, intramuscularly or rectally at about 0.05 to 100 mg/kg/day, preferably 0.5 to 50 mg/kg/day as an endothelin receptor antagonist, about 0.1 to 100 mg/kg/day, preferably 1 to 50 mg/kg/day as a cathepsin B inhibitor and about 1 to 200 mg/kg/day, preferably 5 to 100 mg/kg/day as a bone resorption suppressor, respectively. For use as an oral agent, it is desirable to administer it at about 0.1 to 500 mg/kg/day, preferably 0.5 to 200 mg/kg/day as an endothelin receptor antagonist, about 1 to 500 mg/kg/day, preferably 10 to 300 mg/kg/day as a cathepsin B inhibitor and about 5 to 1000 mg/kg/day, preferably 10 to 300 mg/kg/day as a bone resorption suppressor, respectively.

| SMILES | IC50 (endothelin receptor) [µM] | activity at 10 µg/mL (bone resorption) [%] | further results |
| --- | --- | --- | --- |
| O=S(=O)(N=c1nc2cc3c(cn2s1)CCCC3)c1ccccc1 [Example 14] | 8.8 |  |  |
| CCCc1sc2nc(=NS(=O)(=O)c3ccc(C)cc3)sn2c1-c1ccc2c(c1)CCCC2 [Example 23] | 2.5 |  |  |
| Cc1ccc(S(=O)(=O)N=c2nc3sc(C(C)C)c(-c4ccc5c(c4)CCCC5)n3s2)cc1 [Example 24] | 2.5 |  | inhibition at 100 µM (swine coronary artery): 99%; inhibition at 10 µM (swine coronary artery): 37% |
| Cc1ccc(S(=O)(=O)N=c2nc3sc(CC4CCCCC4)c(-c4ccc5c(c4)CCCC5)n3s2)cc1 [Example 25] |  | 72 | IC50 (Cathepsin B): 1.2 µM |
| CCOC(=O)Cc1sc2nc(=NS(=O)(=O)c3ccc(C)cc3)sn2c1-c1ccc2c(c1)CCCC2 [Example 26] | 4 |  |  |
| CCNC(=O)Cc1sc2nc(=NS(=O)(=O)c3ccc(C)cc3)sn2c1-c1ccc2c(c1)CCCC2 [Example 31] |  |  | IC50 (Cathepsin B): 2.9 µM |
| Cc1ccc(NC(=O)Cc2sc3nc(=NS(=O)(=O)c4ccc(C)cc4)sn3c2-c2ccc3c(c2)CCCC3)cc1 [Example 34] |  | 75 | IC50 (Cathepsin B): 9.3 µM |
| CCc1sc2nc(=NS(=O)(=O)c3ccc(C)cc3)sn2c1CC(=O)NCC1CCCCC1 [Example 65] |  | 74 |  |
| Cc1sc2nc(=NS(=O)(=O)Cc3ccccc3)sn2c1-c1ccc(C2CCCCC2)cc1 [Example 83] | 6 |  | deaths (mice): no deaths occurred |
| CCNC(=O)CCc1sc2nc(=NS(=O)(=O)c3ccc(C)cc3)sn2c1-c1ccc2c(c1)CCCC2 [Example 94] |  | 76 |  |
| CCOC(=O)CCC(NC(=O)CCc1sc2nc(=NS(=O)(=O)c3ccc(C)cc3)sn2c1-c1ccc2c(c1)CCCC2)C(=O)OCC (stereo not shown) [Example 96] |  | 81 | IC50 (Cathepsin B): 1.9 µM |
| CCOC(=O)CCCc1sc2nc(=NS(=O)(=O)c3ccc(C)cc3)sn2c1-c1ccc(C2CCCCC2)cc1 [Example 98] |  | 87 | IC50 (Cathepsin B): 3.5 µM |
| Cc1sc2nc(=NS(=O)(=O)c3cccnc3)sn2c1-c1ccc(C2CCCCC2)cc1 [Example 108] |  | 85 | IC50 (Cathepsin B): 1.1 µM |
| CCCS(=O)(=O)N=c1nc2sc(C)c(-c3ccc(C4CCCCC4)cc3)n2s1 [Example 111] | 6.1 | 75 | inhibition at 10 µM (swine coronary artery): 40%; inhibition at 30 µM (swine coronary artery): 78% |
| CCc1sc2nc(=NS(=O)(=O)CC(C)(C)CO)sn2c1-c1ccc(C2CCCCC2)cc1 [Example 115] |  | 85 |  |

Continued, in another order:

| IC50 (endothelin receptor) [µM] | SMILES | activity at 10 µg/mL (bone resorption) [%] | further results |
| --- | --- | --- | --- |
| 6.5 | Cc1ccc(S(=O)(=O)N=c2nc3cc4c(cn3s2)CCCC4)cc1 [Example 12] |  | inhibition at 100 µM (swine coronary artery): 62%; inhibition at 10 µM (swine coronary artery): 14% |
| 5.9 | Cc1ccccc1S(=O)(=O)N=c1nc2cc3c(cn2s1)CCCC3 [Example 13] |  | inhibition at 100 µM (swine coronary artery): 78%; inhibition at 10 µM (swine coronary artery): 56% |
| 3 | CCc1sc2nc(=NS(=O)(=O)c3ccc(C)cc3)sn2c1-c1ccc2c(c1)CCCC2 [Example 20, 5-ethyl-2-(4-methylphenyl)sulfonylimino-6-(5,6,7,8-tetrahydro-2-naphthyl)-2H-thiazolo[3,2-b][1,2,4]thiadiazole] |  | inhibition at 100 µM (swine coronary artery): 68%; inhibition at 10 µM (swine coronary artery): 11% |
| 7.3 | Cc1ccccc1S(=O)(=O)N=c1nc2sc(C)c(-c3ccc(C4CCCCC4)cc3)n2s1 [Example 73] |  |  |
| 7.5 | CCS(=O)(=O)N=c1nc2sc(C)c(-c3ccc(C4CCCCC4)cc3)n2s1 [Example 82] |  |  |
| 2.1 | CCc1sc2nc(=NS(=O)(=O)c3ccc(C)cc3)sn2c1-c1ccc(C2CCCCC2)cc1 [Example 99] |  |  |
| 2.7 | CCCCOc1ccc(-c2c(CC)sc3nc(=NS(=O)(=O)c4ccc(C)cc4)sn23)cc1 [Example 104] |  |  |
| 4.2 | CCc1sc2nc(=NS(=O)(=O)c3ccc(C)cc3)sn2c1-c1cn(C)c2ccccc12 [Example 106] |  |  |
| 5.2 | CCCCCCCCS(=O)(=O)N=c1nc2sc(C)c(-c3ccc(C4CCCCC4)cc3)n2s1 [Example 112] |  | inhibition at 10 µM (swine coronary artery): 35%; inhibition at 30 µM (swine coronary artery): 83% |
| 3.8 | CCc1sc2nc(=NS(=O)(=O)c3ccc(F)cc3)sn2c1-c1ccc(C2CCCCC2)cc1 [Example 114] |  | inhibition at 10 µM (swine coronary artery): 44%; inhibition at 30 µM (swine coronary artery): 75% |
